In ChEMBL document CHEMBL1143248, “Adenosine analogues as inhibitors of P2Y12 receptor mediated platelet aggregation” (Bioorg Med Chem Lett, 2008) one finds IC50 and inhibition data, which are given here for 15 compounds.

Each structure is given as a SMILES string.

Assay [1] is described as follows: Antagonist activity at P2Y12 receptor assessed as platelet aggregation by washed platelet assay.
Assay [2] has as its target P2Y purinoceptor 12 (Homo sapiens) (UniProt Q9H244). Briefly: Antagonist activity at P2Y12 receptor assessed as platelet aggregation at 30 uM by washed platelet assay. It counts as functional.

Chain of P2Y purinoceptor 12 (Homo sapiens) (Q9H244 whole entry): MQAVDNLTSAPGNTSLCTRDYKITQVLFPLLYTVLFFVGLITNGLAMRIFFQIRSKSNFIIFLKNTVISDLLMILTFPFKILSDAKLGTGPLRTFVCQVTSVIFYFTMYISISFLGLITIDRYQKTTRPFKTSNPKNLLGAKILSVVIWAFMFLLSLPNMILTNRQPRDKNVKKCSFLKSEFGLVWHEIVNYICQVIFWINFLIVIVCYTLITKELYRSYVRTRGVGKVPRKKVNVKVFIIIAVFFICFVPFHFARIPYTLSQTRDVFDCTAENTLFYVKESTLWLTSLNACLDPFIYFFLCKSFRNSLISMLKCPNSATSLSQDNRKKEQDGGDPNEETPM

For orientation: IC50 means the concentration needed to halve the response being measured. `CCNC(=O)Nc1ncnc2c1ncn2[C@@H]1O[C@H](COP(=O)(O)O)[C@H]2O[C@H](/C=C/c3ccccc3)O[C@H]21` [REGRELOR DISODIUM]: in assay [1], the IC50 amounted to 16 nM.

By inhibition is commonly meant the drop in the measured response relative to a control, in per cent. Take `CCCS(=O)(=O)C[C@H]1O[C@@H](n2cnc3c(NC(=O)NCC)ncnc32)[C@@H]2O[C@@H](/C=C/c3ccccc3)O[C@@H]21`: the inhibition in assay [2] turned out to be 65%. For the compound `CCNC(=O)Nc1ncnc2c1ncn2[C@@H]1O[C@H](CSCC(C)O)[C@H]2O[C@H](/C=C/c3ccccc3)O[C@H]21` (stereo not given in full), the inhibition in assay [2] came to 76%. Consider `CCNC(=O)Nc1ncnc2c1ncn2[C@@H]1O[C@H](CN(CC2CC2C(=O)OCC)CC2CC2C(=O)OCC)[C@H]2O[C@H](/C=C/c3ccccc3)O[C@H]21` (stereo not given in full), for which, in assay [2], the inhibition was determined as 46%. The same measure, in the same setting: the same measure for `CCNC(=O)Nc1ncnc2c1ncn2[C@@H]1O[C@H](CS(=O)(=O)CC(O)CO)[C@H]2O[C@H](/C=C/c3ccccc3)O[C@H]21` (stereo not given in full): 14%; for `CCNC(=O)Nc1ncnc2c1ncn2[C@@H]1O[C@H](CNC/C(C)=C/C(=O)OCC)[C@H]2O[C@H](/C=C/c3ccccc3)O[C@H]21`: 70%; for `CCCSC[C@H]1O[C@@H](n2cnc3c(NC(=O)NCC)ncnc32)[C@@H]2O[C@@H](/C=C/c3ccccc3)O[C@@H]21`: 52%.

Turning to `CCNC(=O)Nc1ncnc2c1ncn2[C@@H]1O[C@H](CS(=O)(=O)CCO)[C@H]2O[C@H](/C=C/c3ccccc3)O[C@H]21`, the inhibition in assay [2] was found to be 57%. Consider `CCCCCCCSC[C@H]1O[C@@H](n2cnc3c(NC(=O)NCC)ncnc32)[C@@H]2O[C@@H](/C=C/c3ccccc3)O[C@@H]21`, for which, in assay [2], the inhibition stood at 38%. Regarding `CCNC(=O)Nc1ncnc2c1ncn2[C@@H]1O[C@H](CNC(=O)c2[nH]c(C)c(C(C)=O)c2C)[C@H]2O[C@H](/C=C/c3ccccc3)O[C@H]21`, the inhibition in assay [2] was determined as 53%. Regarding `CCNC(=O)Nc1ncnc2c1ncn2[C@@H]1O[C@H](CNCc2nccs2)[C@H]2O[C@H](/C=C/c3ccccc3)O[C@H]21`, the inhibition in assay [2] was 73%. On the same count and under the same terms, the same measure for `CCNC(=O)Nc1ncnc2c1ncn2[C@@H]1O[C@H](CSC)[C@H]2O[C@H](/C=C/c3ccccc3)O[C@H]21`: 63%. Consider `CCNC(=O)Nc1ncnc2c1ncn2[C@@H]1O[C@H](CSCCCS(=O)(=O)O)[C@H]2O[C@H](/C=C/c3ccccc3)O[C@H]21`, for which the inhibition in assay [2] was 90%. Still for that read-out and setting: with `CCNC(=O)Nc1ncnc2c1ncn2[C@@H]1O[C@H](CNCc2ccccc2O)[C@H]2O[C@H](/C=C/c3ccccc3)O[C@H]21` the figure was 70%. Consider `CCNC(=O)Nc1ncnc2c1ncn2[C@@H]1O[C@H](CSCCO)[C@H]2O[C@H](/C=C/c3ccccc3)O[C@H]21`, for which the inhibition in assay [2] worked out at 63%.
